{"source": "patent US10905777B2", "about": "“Systems and methods for nucleic acid expression in vivo” (DNARx, priority 2015, dated 2021)", "key": {"human G-CSF": {"test_system": "human G-CSF", "assay": "Serum human G-CSF ELISA in mice after sequential IV cationic liposome then CPG-free DNA vector injection", "type": "in vivo", "conditions": "IP 2 hours before and 2 hours after 900 nmol DOTAP SUV then 70 ug DNA, dexamethasone 40 mg/kg, Tofacitinib 15 mg/kg", "protocol": "Three to five mice were injected per group.\nEach mouse was anesthetized and then bled via the submandibular vein. Serum was then isolated from whole blood and human G-CSF levels measured in pg/ml, as performed strictly according to the manufacturer's specifications, using an R and D systems human G-CSF ELISA.\nFive mice were injected per group. […] Serum hG-CSF levels were assessed beginning at day seven after IV injection, and at seven-day intervals thereafter.\nSera were collected from groups of four mice at either day 6 or 14 following sequential, IV injection of 800 nmoles of pure DOTAP MLV cationic liposomes, followed two minutes later by IV injection of 40 μg either an EF1-luciferase—EF1-hGCSF (2 expression cassette) or an EF1-hGCSF (1 expression cassette), CPG-free, single plasmid DNA vector.\nSera were collected from groups of four mice at day 1 following sequential, IV injection of buffer alone (control), 1000 nmoles of pure DOTAP SUV cationic liposomes, alone or co-injected with 1000 nmol of neutral MLV, followed two minutes later by IV injection of 120 μg an EF1-luciferase—EF1-hGCSF (2 expression cassette), CPG-free, single plasmid DNA vector or 1400 nmoles of pure DOTAP SUV cationic liposomes, alone or co-injected with 1000 nmol of neutral MLV, followed two minutes later by IV injection of 100 μg of EF1-luciferase—EF1-hGCSF DNA. […]"}, "luciferase [1]": {"test_system": "luciferase", "assay": "Mouse lung luciferase activity after IV DNA vector delivery", "type": "in vivo", "conditions": "mice, day 7", "description": "Lung was homogenized with 500 ul of 1× Lysis buffer (Promega, Wis.). The homogenate was centrifuged at 3000×g at 4C for 10 min. and the supernatant collected. Luciferase activity was assayed using 20 μl of supernatant and 100 μl of Luciferase reagent for 10 seconds using a GloMax® Luminometer (Promega, Wis.).\nIn each case, cationic liposome injection was followed two minutes later by IV injection of 40 μg of an mCMV-EF1-luciferase, CPG-free, single cassette, DNA vector. […]"}, "Rituximab": {"test_system": "Rituximab", "assay": "Serum Rituximab ELISA in mice after sequential injection of Rituximab DNA vector", "type": "in vivo", "conditions": "24 hours, IP pre-treatment (VPA 15 or 2 mg/kg, Theo 30 or 15 mg/kg), 1050 nmoles DexP liposomes, 75 ug DNA, Dex", "description": "Mice were bled and serum isolated as for G-CSF. Rituximab levels were measured using an Immunoguide ELISA obtained from Eagle Biosciences, and performed according to instructions. […] .\n. […] Numbered plasmids (in FIG. 30) were codon-optimized versions of the original, CpG-free but not codon optimized Rituximab DNA sequence.\n. […] Thus, significant Rituximab serum levels can be produced by either dual- or single-cassette, 2A peptide-containing DNA vectors.\n. Mock-injected mice received LR only without lipid or DNA. Serum levels of Rituximab protein and ALT were assayed 24 hrs later."}, "human factor IX": {"test_system": "human factor IX", "assay": "Human Factor IX ELISA in mice", "conditions": "24 hrs, IP pre-treatment (VPA 2 mg/kg, Theo 30 mg/kg), 1500 nmoles DexP DOTAP SUV, 60 ug factor IX vector, Dex", "protocol": "In this Example, three mice were injected per group. […] This was followed two minutes later by a single IV injection of 60 ug of a codon optimized, EF-1-driven single cassette DNA vector encoding the human factor IX cDNA (see constructs in FIGS. 38 and 44). […] Where indicated, animals were also pretreated by IP injection of 2 mg/kg Valproic Acid (VPA) or 30 mg/kg Theophylline (Theo). […] Each mouse was bled as for G-CSF. Blood was collected into tubes containing Potassium EDTA or Sodium Citrate to prevent coagulation and centrifuged to obtain plasma. An AssayPro ELISA specific to human Factor IX was used according to manufacturer's instructions to measure Factor IX expression."}, "luciferase [2]": {"test_system": "luciferase", "assay": "Mouse spleen luciferase levels after IV PEI:EF-1 Luc DNA complexes with drug pre-injection", "type": "in vivo", "conditions": "mice; day 1; IP drug two hours prior to IV PEI:DNA (12.5 μg); amlexanox 200 μg, chloroquine 1 mg, SAHA 200 μg, tofacitinib 300 μg per mouse"}, "[3]": {"test_system": "CD20-expressing human Raji B cells", "assay": "FACS binding to Raji cells", "type": "cell-based", "conditions": "anti-human IgG-PE, serum six weeks after injection", "description": "In this Example, Raji cells (1 million/sample) were incubated with mouse serum samples or recombinant Rituximab (50 ng/ml) for 1 hr at 4C, in FACS binding buffer containing EDTA and 0.5% BSA. Following washes, samples were incubated with fluorescently labeled secondary antibody (anti-human IgG-PE) for 30 min, washed and analyzed using an Accuri flow cytometer. Between 3500-5000 events were recorded for each sample. The experiment was repeated twice with similar results."}, "[4]": {"conditions": "in vivo; cited from earlier work"}, "[5]": {"conditions": "drug with 800 nmoles DOTAP MLV (L-arginine 2 mg/kg, colchicine 0.01 mg/kg, dexamethasone 1 mg/kg) then 40 μg single cassette mCMV-EF1-luciferase"}, "[6]": {"conditions": "drug with 800 nmoles DOTAP MLV then 40 μg dual cassette EF1-luciferase—EF1-hGCSF"}}}
{"molecule": "C[C@@H]1CCN(C(=O)CC#N)C[C@@H]1N(C)c1ncnc2[nH]ccc12", "note": "[tofacitinib]", "values": [{"measurement": "HuG-CSF protein levels", "setting": "human G-CSF", "result": "did neither"}]}
{"molecule": "N=C(N)NCCC[C@H](N)C(=O)O", "note": "[L-arginine]", "values": [{"measurement": "luciferase activity in the lung vs DOTAP MLV alone (control)", "setting": "luciferase [1]; [5]", "result": "failed to increase gene expression levels"}, {"measurement": "luciferase activity in the lung vs DOTAP MLV alone (control)", "setting": "luciferase [1]; [6]", "result": "either lower than or comparable to controls"}]}
{"molecule": "Cn1c(=O)c2[nH]cnc2n(C)c1=O", "note": "[Theophylline]", "values": [{"measurement": "serum Rituximab levels", "setting": "Rituximab", "result": "significantly increased"}, {"measurement": "serum human factor IX levels", "setting": "human factor IX", "result": "significantly higher"}]}
{"molecule": "CC(C)c1ccc2oc3nc(N)c(C(=O)O)cc3c(=O)c2c1", "note": "[amlexanox]", "values": [{"measurement": "spleen gene expression (luciferase) levels", "setting": "luciferase [2]", "result": "increased gene expression levels"}]}
{"molecule": "CCCc1nn(C)c2c(=O)[nH]c(-c3cc(S(=O)(=O)N4CCN(C)CC4)ccc3OCC)nc12", "note": "[sildenafil]", "values": [{"measurement": "luciferase activity in the lung vs DOTAP MLV alone (control)", "setting": "luciferase [1]; [6]", "result": "higher luciferase activity"}]}
{"molecule": "Recombinant Rituximab: recombinant Rituximab (anti-CD20) protein used as reference", "values": [{"measurement": "Mean Fluorescence Intensity", "setting": "[3]", "result": 5781.87}]}
{"molecule": "COc1cc2c(c(OC)c1OC)-c1ccc(OC)c(=O)cc1[C@@H](NC(C)=O)CC2", "note": "[colchicine]", "values": [{"measurement": "luciferase activity in the lung vs DOTAP MLV alone (control)", "setting": "luciferase [1]; [5]", "result": "higher luciferase activity"}]}
{"molecule": "CCCC(CCC)C(=O)O", "note": "[valproic acid]", "values": [{"measurement": "serum Rituximab levels", "setting": "Rituximab", "result": "significantly increased"}, {"measurement": "serum human factor IX levels", "setting": "human factor IX", "result": "significantly higher"}]}
{"molecule": "O=C(CCCCCCC(=O)Nc1ccccc1)NO", "note": "[SAHA, suberanilohydroxamic acid]", "values": [{"measurement": "spleen gene expression (luciferase) levels", "setting": "luciferase [2]", "result": "increased gene expression levels"}]}
{"molecule": "CCN(CC)CCCC(C)Nc1ccnc2cc(Cl)ccc12", "note": "(centres unmarked) [chloroquine]", "values": [{"measurement": "spleen gene expression (luciferase) levels", "setting": "luciferase [2]", "result": "increased gene expression levels"}]}
{"molecule": "Neupogen: recombinant human G-CSF protein (protein, UniProt P09919 31-207, looked up, filgrastim) Granulocyte …: TPLGPASSLPQSFLLKCLEQVRKIQGDGAALQEKLVSECATYKLCHPEELVLLGHSLGIPWAPLSSCPSQALQLAGCLSQLHSGLFLYQGLLQALEGISPELGPTLDTLQLDVADFATTIWQQMEELGMAPALQPTQGAMPAFASAFQRRAGGVLVASHLQSFLEVSYRVLRHLAQP", "values": [{"measurement": "time for serum hG-CSF levels to return to baseline", "setting": "[4]", "result": "approximately 14 hours"}]}
